Measurements taken from ChEMBL document CHEMBL1129105, “Synthesis and biological evaluation of N-(1-aziridino)-6-fluoro-quinolone-3-carboxylic acids” (1996).
≈ marks a conversion by molar mass, not a printed value.

What was measured:
[1] = system: Proteus vulgaris; assay: In vitro antibacterial activity of compound was measured against gram negative Proteus vulgaris XL; format: functional
[2] = system: Escherichia coli; assay: In vitro antibacterial activity of compound was measured against gram negative Escherichia coli K12; format: functional
[3] = system: Bacteroides fragilis; assay: In vitro antibacterial activity of compound was measured against gram negative Bacteroides fragilis ATCC 25285; format: functional
[4] = system: Bacillus subtilis; assay: In vitro antibacterial activity of compound was measured against gram positive Bacillus subtilis ATCC 6633; format: functional
[5] = system: Shigella sonnei; assay: In vitro antibacterial activity of compound was measured against gram negative Shigella sonnei; format: functional
[6] = system: Acinetobacter calcoaceticus subsp. anitratus; assay: In vitro antibacterial activity of compound was measured against gram negative Acinetobacter anitratus 150001; format: functional
[7] = system: Enterococcus faecalis; assay: In vitro antibacterial activity of compound was measured against gram positive Streptococcus faecalis; format: functional
[8] = system: Mycobacterium tuberculosis; assay: In vitro antibacterial activity of compound was measured against gram positive Mycobacterium tuberculosis H37Rv (human); format: functional
[9] = system: Escherichia coli; assay: In vitro antibacterial activity of compound was measured against gram negative Escherichia coli 6R; format: functional
[10] = system: Klebsiella pneumoniae; assay: In vitro antibacterial activity of compound was measured against gram negative Klebsiella pneumoniae ATCC 10031; format: functional
[11] = system: Streptococcus pyogenes; assay: In vitro antibacterial activity of compound was measured against gram positive Streptococcus pyogenes A 118; format: functional
[12] = system: Clostridium perfringens; assay: In vitro antibacterial activity of compound was measured against gram positive Clostridium perfringens 70500; format: functional
[13] = system: Streptococcus pneumoniae; assay: In vitro antibacterial activity of compound was measured against gram positive Streptococcus pneumoniae; format: functional
[14] = system: Staphylococcus aureus; assay: In vitro antibacterial activity of compound was measured against gram positive Staphylococcus aureus 1110 pen.rez.; format: functional
[15] = system: Proteus inconstans; assay: In vitro antibacterial activity of compound was measured against gram negative Proteus inconstans NCTC 8055; format: functional; settings: Providencia alcalifaciens
[16] = system: Serratia marcescens; assay: In vitro antibacterial activity of compound was measured against gram negative Serratia marcescens; format: functional
[17] = system: Streptococcus pyogenes; assay: In vitro antibacterial activity of compound was measured against gram positive Streptococcus pyogenes A 115 ROBB; format: functional
[18] = system: Staphylococcus aureus; assay: In vitro antibacterial activity of compound was measured against gram positive Staphylococcus aureus SMITH; format: functional
[19] = system: Mycobacterium tuberculosis; assay: In vitro antibacterial activity of compound was measured against gram positive Mycobacterium tuberculosis Ravenel(bovin); format: functional
[20] = system: Bordetella bronchiseptica; assay: In vitro antibacterial activity of compound was measured against gram negative Bordetella bronchiseptica ATCC 4617; format: functional
[21] = system: Alcaligenes faecalis; assay: In vitro antibacterial activity of compound was measured against gram negative Alcaligenes faecalis 140001; format: functional
[22] = system: Pseudomonas aeruginosa; assay: In vitro antibacterial activity of compound was measured against gram negative Pseudomonas pyocyanea NCTC 10490; format: functional, pseudomona pyocyanea
[23] = system: Salmonella typhimurium; assay: In vitro antibacterial activity of compound was measured against gram negative Salmonella Typhimurium 51; format: functional, Salmonella enterica subsp. enterica serovar Typhimurium; settings: Salmonella enterica

| SMILES | MIC [1] [µg/mL] | MIC [2] [µg/mL] | MIC [3] [µg/mL] | MIC [4] [µg/mL] | MIC [5] [µg/mL] | MIC [6] [µg/mL] | MIC [7] [µg/mL] | MIC [8] [µg/mL] | MIC [9] [µg/mL] | MIC [10] [µg/mL] | MIC [11] [µg/mL] | MIC [12] [µg/mL] | MIC [13] [µg/mL] | MIC [14] [µg/mL] | MIC [15] [µg/mL] | MIC [16] [µg/mL] | MIC [17] [µg/mL] | MIC [18] [µg/mL] | MIC [19] [µg/mL] | MIC [20] [µg/mL] | further results |
| --- | --- | --- | --- | --- | --- | --- | --- | --- | --- | --- | --- | --- | --- | --- | --- | --- | --- | --- | --- | --- | --- |
| CN1CCN(c2c(F)cc3c(=O)c(C(=O)O)cn(N4CC4c4ccccc4)c3c2F)CC1 (stereo not given) | 25 (≈ 56.8 µM) | 25 (≈ 56.8 µM) | > 100 | 100 (≈ 227 µM) | 6.2 (≈ 14.1 µM) | > 100 | > 100 | 100 (≈ 227 µM) | > 100 | 12.5 (≈ 28.4 µM) | > 100 | 100 (≈ 227 µM) | 25 (≈ 56.8 µM) | 100 (≈ 227 µM) | 50 (≈ 114 µM) | 50 (≈ 114 µM) | 50 (≈ 114 µM) | 100 (≈ 227 µM) | 50 (≈ 114 µM) | 100 (≈ 227 µM) | MIC [21]: > 100 µg/mL; MIC [22]: > 100 µg/mL; MIC [23]: 25 µg/mL (≈ 56.8 µM) |
| CN1CCN(c2c(F)cc3c(=O)c(C(=O)O)cn(N4CC4c4ccc(F)cc4)c3c2F)CC1 (stereo not given) | 25 (≈ 54.5 µM) | 12.5 (≈ 27.3 µM) | > 100 | > 100 | 12.5 (≈ 27.3 µM) | > 100 | > 100 | 100 (≈ 218 µM) | > 100 | 12.5 (≈ 27.3 µM) | > 100 | 100 (≈ 218 µM) | 50 (≈ 109 µM) | > 100 | 25 (≈ 54.5 µM) | 25 (≈ 54.5 µM) | 100 (≈ 218 µM) | > 100 | 50 (≈ 109 µM) | > 100 | MIC [21]: > 100 µg/mL; MIC [22]: > 100 µg/mL; MIC [23]: 25 µg/mL (≈ 54.5 µM) |
| CN1CCN(c2cc3c(cc2F)c(=O)c(C(=O)O)cn3N2CC2c2ccccn2)CC1 (stereo not given) | > 100 | 100 (≈ 236 µM) | 50 (≈ 118 µM) | 50 (≈ 118 µM) | 12.5 (≈ 29.5 µM) | > 100 | 100 (≈ 236 µM) | 50 (≈ 118 µM) | 100 (≈ 236 µM) | 50 (≈ 118 µM) | 50 (≈ 118 µM) | 50 (≈ 118 µM) | 25 (≈ 59 µM) | 100 (≈ 236 µM) | > 100 | 100 (≈ 236 µM) | 50 (≈ 118 µM) | 50 (≈ 118 µM) | 25 (≈ 59 µM) | 100 (≈ 236 µM) | MIC [21]: > 100 µg/mL; MIC [22]: 100 µg/mL (≈ 236 µM); MIC [23]: 100 µg/mL (≈ 236 µM) |
| CN1CCN(c2cc3c(cc2F)c(=O)c(C(=O)O)cn3N2CC2c2ccc(F)cc2)CC1 (stereo not given) | 100 (≈ 227 µM) | 50 (≈ 114 µM) | 25 (≈ 56.8 µM) | 10 (≈ 22.7 µM) | 25 (≈ 56.8 µM) | 50 (≈ 114 µM) | 25 (≈ 56.8 µM) | 12.5 (≈ 28.4 µM) | 100 (≈ 227 µM) | 6.2 (≈ 14.1 µM) | 25 (≈ 56.8 µM) | 6.2 (≈ 14.1 µM) | 5 (≈ 11.4 µM) | 25 (≈ 56.8 µM) | 100 (≈ 227 µM) | 100 (≈ 227 µM) | 10 (≈ 22.7 µM) | 25 (≈ 56.8 µM) | 6.2 (≈ 14.1 µM) | 12.5 (≈ 28.4 µM) | MIC [21]: 100 µg/mL (≈ 227 µM); MIC [22]: 100 µg/mL (≈ 227 µM); MIC [23]: 50 µg/mL (≈ 114 µM) |
| CN1CCN(c2cc3c(cc2F)c(=O)c(C(=O)O)cn3N2C3CCCCC32)CC1 (stereo not given) | 50 (≈ 125 µM) | 50 (≈ 125 µM) | 25 (≈ 62.4 µM) | 3.1 (≈ 7.74 µM) | 12.5 (≈ 31.2 µM) | 12.5 (≈ 31.2 µM) | > 100 | 6.2 (≈ 15.5 µM) | 100 (≈ 250 µM) | 0.8 (≈ 2 µM) | 100 (≈ 250 µM) | 100 (≈ 250 µM) | 100 (≈ 250 µM) | 50 (≈ 125 µM) | 100 (≈ 250 µM) | 50 (≈ 125 µM) | 100 (≈ 250 µM) | 50 (≈ 125 µM) | 3.1 (≈ 7.74 µM) | 25 (≈ 62.4 µM) | MIC [21]: 100 µg/mL (≈ 250 µM); MIC [22]: 100 µg/mL (≈ 250 µM); MIC [23]: 25 µg/mL (≈ 62.4 µM) |
